The values that follow come from article PMC5464911, “SEL120-34A is a novel CDK8 inhibitor active in AML cells with high levels of serine phosphorylation of STAT1 and STAT5 transactivation domains” (Oncotarget, 2017).

Assay [1] has as its system STAT1 S727. Briefly: IFN-dependent STAT1 S727 phosphorylation in HCT-116 cells (WB). Format: cell-based. Conditions: IFNa or IFNg for 4 hours, increasing concentrations. Here is the method:
(B) SEL120-34A inhibits IFN-dependent phosphorylation of STAT1 S727. HCT-116 cells stimulated with IFNg for 4 h were treated with increasing doses of SEL120-34A, Flavopiridol (F) or vehicle DMSO (C) to determine changes in the phosphorylation of STAT1 S727 and Y701, as measured by WB. (*) unspecific band. (C) SEL120-34A inhibits serine phosphorylation of STAT1 S727 and STAT5 S726, whereas Ruxolitinib inhibits tyrosine phosphorylation of STAT1 Y701 and STAT5 Y694 in JAK2 V617F cells. SET-2 cells were treated with Ruxolitinib, SEL120-34A or vehicle DMSO (C) for 24 hours and protein levels of pS727, pY701 STAT1 and pS726, pY694 STAT5 were measured by WB. […]
0,1% SDS; 20 mM β-glicerol phosphate; 5 mM NaF; cat. # sc835), α-STAT5-pS726 (1:1000; Abcam, cat. # 1 mM Na3VO4) supplemented with protease inhibitors ab128896), α-STAT5-pY694 (1:1000; Cell Signaling, (Santa Cruz Biotechnology). […] Protein concentration in lysates (1:20000; Sigma, cat. # G9545) was measured by the Bradford assay and adjusted to achieve the same final concentration in each well (20-30 mRNA extraction from xenograft tissue μg protein/well). […] Prior to microarray analyses, the quality of the incubation with secondary donkey anti-rabbit antibodies RNA samples was determined using an Agilent 2100 conjugated to HRP, used at 1:4000 (Cell Signaling, Bioanalyzer (Agilent Technologies, CA, USA). […]

Assay [2] has as its target CDK19/CycC (Homo sapiens, UniProt Q9BWU1). Briefly: Radiometric protein kinase assay (PanQinase, ProQinase).

Sequence of CDK19/CycC (Q9BWU1 whole entry): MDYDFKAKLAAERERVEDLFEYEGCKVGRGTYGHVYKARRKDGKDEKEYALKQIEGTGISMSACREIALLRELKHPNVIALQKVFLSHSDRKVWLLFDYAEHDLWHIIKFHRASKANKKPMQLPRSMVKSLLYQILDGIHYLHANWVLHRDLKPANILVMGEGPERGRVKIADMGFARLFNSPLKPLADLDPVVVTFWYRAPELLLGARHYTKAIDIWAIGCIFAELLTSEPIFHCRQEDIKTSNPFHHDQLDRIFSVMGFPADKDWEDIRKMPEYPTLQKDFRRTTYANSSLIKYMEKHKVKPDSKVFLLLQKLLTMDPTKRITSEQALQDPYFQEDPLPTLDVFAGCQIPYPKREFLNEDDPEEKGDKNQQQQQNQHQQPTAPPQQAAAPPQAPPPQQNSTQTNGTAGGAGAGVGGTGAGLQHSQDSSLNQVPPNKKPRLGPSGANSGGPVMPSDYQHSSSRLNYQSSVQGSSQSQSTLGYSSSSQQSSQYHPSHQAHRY
Sequence of CDK19/CycC (P24863 whole entry partner): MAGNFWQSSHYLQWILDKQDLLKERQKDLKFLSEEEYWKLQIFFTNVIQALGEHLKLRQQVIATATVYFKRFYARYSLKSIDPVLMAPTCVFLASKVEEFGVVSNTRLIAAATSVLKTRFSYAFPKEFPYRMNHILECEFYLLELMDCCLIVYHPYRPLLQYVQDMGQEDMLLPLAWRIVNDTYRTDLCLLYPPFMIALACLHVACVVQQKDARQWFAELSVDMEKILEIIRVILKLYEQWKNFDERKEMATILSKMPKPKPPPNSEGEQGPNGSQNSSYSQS

In general, IC50 refers to the concentration that gives 50% inhibition. Low readings indicate greater potency, high ones weaker potency. As for `Cc1c(Br)c(Br)c2c3c1nc(N1CCNCC1)n3CCC2` [SEL120-34A], the “STAT1 S727 phosphorylation” value in assay [1] is “dose-depended inhibition”. The IC50 in assay [2] is 10.4 nM.
